Data taken from patent US20100222322A1, “Non-Nucleoside Reverse Transcriptase Inhibitors” (MERCK & CO., INC., priority 2005, published 2010).
Where two headings read alike, the source gives them in different places.

Legend:
[1] = target: T1, mutant HIV reverse transcriptase with the K103N mutation (Human immunodeficiency virus type 1 group M subtype B, UniProt P04585, K690N); experiment: Analogous RT inhibition assay, K103N mutant; assay type: biochemical
T1 construct: mutations that occur in the reverse transcriptase segment of the pol gene; made in house
Experimental: (§1) 100 μL reaction mixtures were initiated with a combination of primer-template substrate (10 nM final concentration) and dNTPs (0.6 μM dNTPs, 0.75 μM [^3H]-dGTP). The heterodimeric nucleic acid substrate was generated by annealing the DNA primer pD500 (described in Shaw-Reid et al., J. Biol. Chem., 278: 2777-2780; obtained from Integrated DNA Technologies) to t500, a 500 nucleotide RNA template created by in vitro transcription (see Shaw-Reid et al., J. Biol. Chem., 278: 2777-2780). After 1 hour incubation at 37° C., reactions were quenched by 10 μL streptavidin scintillation proximity assay beads (10 mg/mL, from Amersham Biosciences) in 0.5 M EDTA, pH 8. Microtiter plates were incubated an additional 10 minutes at 37° C. prior to quantification via Topcount (Packard).
(§2) Analogous assays were conducted substituting mutant HIV strains to determine the […] inhibition of compounds of the present invention against mutant HIV reverse transcriptase. In one strain the reverse transcriptase has the Y181C mutation and in the other strain the reverse transcriptase has the K103N mutation. The mutations were generated with the […] site-directed mutagenesis kit (Stratagene). […] The compounds set forth in the other Examples were not tested in the Y181C assay. […] The compounds set forth in the other Examples were not tested in the K103N assay.

[2] = target: T2, mutant HIV reverse transcriptase with the Y181C mutation (Human immunodeficiency virus type 1 group M subtype B, UniProt P04585, Y768C); experiment: Analogous RT inhibition assay, Y181C mutant; assay type: biochemical
T2 construct: mutations that occur in the reverse transcriptase segment of the pol gene; made in house
Experimental: as §1, §2

[3] = tested on: HIV replication in T-lymphoid cells; experiment: Spread assay: inhibition of acute HIV infection of T-lymphoid cells; assay type: cell-based; conditions: read-out: IC95, spread assay (inhibition of HIV replication)
Experimental: An assay for the inhibition of acute HIV infection of T-lymphoid cells (alternatively referred to herein as the “spread assay”) was conducted in accordance with Vacca, J. P. et al., Proc. Natl. Acad. Sci. USA 1994, 91: 4096. […] The compounds of Examples 26, 29, 30, 33-35 and 62 were tested in the spread assay up to 10 micromolar, but specific IC95 values were not obtained; i.e., the IC95 values were greater than 10 micromolar. The compounds of Examples 47 and 61 were not tested.

[4] = RT with K103N mutation, tested up to 20 micromolar, read-out: IC50, K103N mutant assay
[5] = RT with Y181C mutation, tested up to 20 micromolar, read-out: IC50, Y181C mutant assay
[6] = Human immunodeficiency virus 1, acute HIV infection of T-lymphoid cells, tested up to 10 micromolar
[7] = Human immunodeficiency virus 1, T-lymphoid

Compound | IC50 [1, 4] | IC50 [2, 5] | IC95 [3, 6] | IC50 [1] | IC50 [2] | IC95 [3, 7]
NC(=O)c1[nH]c2ccc(Br)cc2c1S(=O)(=O)N1CCCC1 [Example 1, 5-Bromo-3-(pyrrolidin-1-ylsulfonyl)-1H-indole-2-carboxamide] | 1000 to 20000 nM | < 1000 nM | < 1000 nM | – | – | –
NC(=O)c1[nH]c2ccc(Cl)cc2c1S(=O)(=O)NC1CCCCC1 [Example 2, 5-chloro-3-[(cyclohexylamino)sulfonyl]-1H-indole-2-carboxamide] | – | – | < 1000 nM | > 20000 nM | < 1000 nM | –
NC(=O)c1[nH]c2ccc(Cl)cc2c1S(=O)(=O)NC1CCCC1 [Example 4, 5-chloro-3-[(cyclopentylamino)sulfonyl]-1H-indole-2-carboxamide] | – | < 1000 nM | < 1000 nM | > 20000 nM | – | –
NC(=O)c1[nH]c2ccc(Cl)cc2c1S(=O)(=O)N1CCCCC1 [Example 5, 5-chloro-3-(piperidin-1-ylsulfonyl)-1H-indole-2-carboxamide] | – | < 1000 nM | < 1000 nM | > 20000 nM | – | –
NC(=O)c1[nH]c2ccc(Cl)cc2c1S(=O)(=O)N1CCCC1 [Example 6, 5-chloro-3-(pyrrolidin-1-ylsulfonyl)-1H-indole-2-carboxamide] | – | < 1000 nM | < 1000 nM | 1000 to 20000 nM | – | –
CN(C1CC1)S(=O)(=O)c1c(C(N)=O)[nH]c2ccc(Br)cc12 [Example 8, 5-bromo-3-{[cyclopropyl(methyl)amino]sulfonyl}-1H-indole-2-carboxamide] | – | – | < 1000 nM | > 20000 nM | 1000 to 20000 nM | –
NC(=O)c1[nH]c2ccc(Br)cc2c1S(=O)(=O)NCCS(N)(=O)=O [Example 9, 3-({[2-(aminosulfonyl)ethyl]amino}sulfonyl)-5-bromo-1H-indole-2-carboxamide] | – | – | < 1000 nM | 1000 to 20000 nM | 1000 to 20000 nM | –
NC(=O)c1[nH]c2ccc(Br)cc2c1S(=O)(=O)N1CC=CC1 [Example 10, 5-bromo-3-(2,5-dihydro-1H-pyrrol-1-ylsulfonyl)-1H-indole-2-carboxamide] | – | – | < 1000 nM | < 1000 nM | < 1000 nM | –
NC(=O)c1[nH]c2ccc(Br)cc2c1S(=O)(=O)NC1CC1 [Example 11, 5-bromo-3-[(cyclopropylamino)sulfonyl]-1H-indole-2-carboxamide] | – | – | < 1000 nM | > 20000 nM | 1000 to 20000 nM | –
CON(C)S(=O)(=O)c1c(C(N)=O)[nH]c2ccc(Br)cc12 [Example 12, 5-bromo-3-{[methoxy(methyl)amino]sulfonyl}-1H-indole-2-carboxamide] | – | – | < 1000 nM | > 20000 nM | > 20000 nM | –
NC(=O)c1[nH]c2ccc(Br)cc2c1S(=O)(=O)N1CCCCC1 [Example 13, 5-bromo-3-(piperidin-1-ylsulfonyl)-1H-indole-2-carboxamide] | 1000 to 20000 nM | < 1000 nM | < 1000 nM | – | – | –
COC[C@@H]1CCCN1S(=O)(=O)c1c(C(N)=O)[nH]c2ccc(Br)cc12 [Example 15, 5-bromo-3-{[(2S)-2-(methoxymethyl)pyrrolidin-1-yl]sulfonyl}-1H-indole-2-carboxamide] | 1000 to 20000 nM | < 1000 nM | < 1000 nM | – | – | –
NC(=O)c1[nH]c2ccc(Br)cc2c1S(=O)(=O)NC1CCCCC1 [Example 16, 5-bromo-3-[(cyclohexylamino)sulfonyl]-1H-indole-2-carboxamide] | > 20000 nM | < 1000 nM | < 1000 nM | – | – | –
NC(=O)c1[nH]c2ccc(Br)cc2c1S(=O)(=O)NC1CCCC1 [Example 17, 5-bromo-3-[(cyclopentylamino)sulfonyl]-1H-indole-2-carboxamide] | > 20000 nM | < 1000 nM | < 1000 nM | – | – | –
NC(=O)c1[nH]c2ccc(Br)cc2c1S(=O)(=O)NCC1CCCO1 (centres unmarked) [Example 18, 5-bromo-3-{[(tetrahydrofuran-2-ylmethyl)amino]sulfonyl}-1H-indole-2-carboxamide] | > 20000 nM | < 1000 nM | < 1000 nM | – | – | –
NC(=O)c1[nH]c2ccc(Br)cc2c1S(=O)(=O)N1CCC[C@H]1C(F)(F)F [Example 19, 5-bromo-3-{[(2S)-2-(trifluoromethyl)pyrrolidin-1-yl]sulfonyl}-1H-indole-2-carboxamide] | > 20000 nM | – | < 1000 nM | – | 1000 to 20000 nM | –

Compound | IC50 [1, 4] | IC50 [2, 5] | IC95 [3, 6] | IC50 [1] | IC50 [2] | IC95 [3, 7]
NC(=O)c1[nH]c2ccc(Br)cc2c1S(=O)(=O)N1CCCC(F)(F)C1 [Example 21, 5-bromo-3-[(3,3-difluoropiperidin-1-yl)sulfonyl]-1H-indole-2-carboxamide] | – | – | < 1000 nM | > 20000 nM | < 1000 nM | –
O=C(NCCO)c1[nH]c2ccc(Br)cc2c1S(=O)(=O)N1CCCCC1 [Example 31, 5-bromo-N-(2-hydroxyethyl)-3-(piperidin-1-ylsulfonyl)-1H-indole-2-carboxamide] | – | – | – | > 20000 nM | < 1000 nM | < 1000 nM
O=C(NCCO)c1[nH]c2ccc(Br)cc2c1S(=O)(=O)N1CCCC1 [Example 32, 5-bromo-N-(2-hydroxyethyl)-3-(pyrrolidin-1-ylsulfonyl)-1H-indole-2-carboxamide] | – | – | – | 1000 to 20000 nM | < 1000 nM | < 1000 nM
NC(=O)c1[nH]c2ccc(Cl)cc2c1S(=O)(=O)N1CC=CC1 [Example 37, 5-chloro-3-(2,5-dihydro-1H-pyrrol-1-ylsulfonyl)-1H-indole-2-carboxamide] | – | < 1000 nM | < 1000 nM | 1000 to 20000 nM | – | –
NC(=O)c1[nH]c2ccc(Cl)cc2c1S(=O)(=O)N1CCC(F)C1 (centres unmarked) [Example 38, 5-chloro-3-[(3-fluoropyrrolidin-1-yl)sulfonyl]-1H-indole-2-carboxamide] | – | < 1000 nM | < 1000 nM | 1000 to 20000 nM | – | –
NC(=O)c1[nH]c2ccc(Cl)cc2c1S(=O)(=O)N1CCC(F)(F)C1 [Example 39, 5-chloro-3-[(3,3-difluoropyrrolidin-1-yl)sulfonyl]-1H-indole-2-carboxamide] | – | < 1000 nM | < 1000 nM | – | – | –
O=C(NCc1nccs1)c1[nH]c2ccc(Br)cc2c1S(=O)(=O)N1CCCC1 [Example 47, 5-Bromo-3-(pyrrolidin-1-ylsulfonyl)-N-(1,3-thiazol-2-ylmethyl)-1H-indole-2-carboxamide] | < 1000 nM | < 1000 nM | – | – | – | –
O=C(NCc1c(F)cccc1Cl)c1[nH]c2ccc(Br)cc2c1S(=O)(=O)N1CCCC1 [Example 48, 5-bromo-N-(2-chloro-6-fluorobenzyl)-3-(pyrrolidin-1-ylsulfonyl)-1H-indole-2-carboxamide] | – | – | < 1000 nM | < 1000 nM | < 1000 nM | –
O=C(NCc1ccccc1O)c1[nH]c2ccc(Br)cc2c1S(=O)(=O)N1CCCC1 [Example 51, 5-bromo-N-(2-hydroxybenzyl)-3-(pyrrolidin-1-ylsulfonyl)-1H-indole-2-carboxamide] | – | – | < 1000 nM | < 1000 nM | < 1000 nM | –
O=C(NCc1ccccc1OC(F)F)c1[nH]c2ccc(Br)cc2c1S(=O)(=O)N1CCCC1 [Example 53, 5-bromo-N-[2-(difluoromethoxy)benzyl]-3-(pyrrolidin-1-ylsulfonyl)-1H-indole-2-carboxamide] | – | – | < 1000 nM | < 1000 nM | < 1000 nM | –
O=C(NCc1ccn[nH]1)c1[nH]c2ccc(Br)cc2c1S(=O)(=O)N1CCCC1 [Example 59, 5-bromo-N-(1H-pyrazol-5-ylmethyl)-3-(pyrrolidin-1-ylsulfonyl)-1H-indole-2-carboxamide] | – | – | < 1000 nM | < 1000 nM | < 1000 nM | –
O=C(NCc1ncc(-c2ccccc2)[nH]1)c1[nH]c2ccc(Br)cc2c1S(=O)(=O)N1CCCC1 [Example 62, 5-bromo-N-[(5-phenyl-1H-imidazol-2-yl)methyl]-3-(pyrrolidin-1-ylsulfonyl)-1H-indole-2-carboxamide] | – | – | > 10000 nM | – | – | –
O=C(NCc1nc2cccnc2[nH]1)c1[nH]c2ccc(Br)cc2c1S(=O)(=O)N1CCCC1 [Example 63, 5-bromo-N-(3H-imidazo[4,5-b]pyridin-2-ylmethyl)-3-(pyrrolidin-1-ylsulfonyl)-1H-indole-2-carboxamide] | – | – | < 1000 nM | – | – | –
C=Cc1ccc2[nH]c(C(N)=O)c(S(=O)(=O)N3CCCC3)c2c1 [Example 66, 3-(pyrrolidin-1-ylsulfonyl)-5-vinyl-1H-indole-2-carboxamide] | – | – | < 1000 nM | – | – | –
NC(=O)c1[nH]c2ccc(-c3cccc4ncccc34)cc2c1S(=O)(=O)N1CCCC1 [Example 67, 3-(pyrrolidin-1-ylsulfonyl)-5-quinolin-5-yl-1H-indole-2-carboxamide] | – | – | < 1000 nM | – | – | –
